Results published in publication PMC3872227 (Chemistry & biology, 2013).

Target: α1(A322D)β2γ2 GABAA receptor (α1 subunit) (Homo sapiens, UniProt P14867+P47870, P14867:A322D)
Assay: whole-cell patch-clamp peak current at […] GABA, after SAHA treatment
Assay type: cell-based

α1(A322D)β2γ2 GABAA receptor (α1 subunit), sequence (P14867 28-456 A322D): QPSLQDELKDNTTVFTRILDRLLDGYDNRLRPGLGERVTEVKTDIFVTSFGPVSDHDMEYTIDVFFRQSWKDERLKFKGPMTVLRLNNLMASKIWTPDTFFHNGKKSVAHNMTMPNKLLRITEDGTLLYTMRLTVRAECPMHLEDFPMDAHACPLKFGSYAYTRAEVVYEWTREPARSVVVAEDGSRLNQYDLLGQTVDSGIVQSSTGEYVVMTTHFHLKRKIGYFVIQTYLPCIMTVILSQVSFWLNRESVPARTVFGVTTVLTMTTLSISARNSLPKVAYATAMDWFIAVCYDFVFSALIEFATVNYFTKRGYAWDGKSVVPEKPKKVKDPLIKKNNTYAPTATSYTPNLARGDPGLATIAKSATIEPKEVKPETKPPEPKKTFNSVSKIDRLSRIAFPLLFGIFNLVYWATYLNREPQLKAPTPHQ
α1(A322D)β2γ2 GABAA receptor (α1 subunit), sequence (P47870 26-512): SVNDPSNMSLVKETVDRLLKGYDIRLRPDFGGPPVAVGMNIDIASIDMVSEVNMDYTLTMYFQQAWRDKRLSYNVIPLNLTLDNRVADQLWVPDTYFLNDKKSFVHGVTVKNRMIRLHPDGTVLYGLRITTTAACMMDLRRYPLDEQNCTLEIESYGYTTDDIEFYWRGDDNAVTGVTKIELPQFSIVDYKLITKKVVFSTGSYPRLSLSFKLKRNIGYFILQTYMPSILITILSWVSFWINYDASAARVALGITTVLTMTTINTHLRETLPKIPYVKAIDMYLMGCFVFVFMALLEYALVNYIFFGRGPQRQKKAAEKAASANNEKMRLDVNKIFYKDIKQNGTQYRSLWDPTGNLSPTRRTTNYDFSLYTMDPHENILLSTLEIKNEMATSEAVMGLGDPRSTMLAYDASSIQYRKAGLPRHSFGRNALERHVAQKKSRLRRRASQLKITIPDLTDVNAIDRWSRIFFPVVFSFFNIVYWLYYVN
α1(A322D)β2γ2 GABAA receptor (α1 subunit), sequence (P18507 40-475 partner): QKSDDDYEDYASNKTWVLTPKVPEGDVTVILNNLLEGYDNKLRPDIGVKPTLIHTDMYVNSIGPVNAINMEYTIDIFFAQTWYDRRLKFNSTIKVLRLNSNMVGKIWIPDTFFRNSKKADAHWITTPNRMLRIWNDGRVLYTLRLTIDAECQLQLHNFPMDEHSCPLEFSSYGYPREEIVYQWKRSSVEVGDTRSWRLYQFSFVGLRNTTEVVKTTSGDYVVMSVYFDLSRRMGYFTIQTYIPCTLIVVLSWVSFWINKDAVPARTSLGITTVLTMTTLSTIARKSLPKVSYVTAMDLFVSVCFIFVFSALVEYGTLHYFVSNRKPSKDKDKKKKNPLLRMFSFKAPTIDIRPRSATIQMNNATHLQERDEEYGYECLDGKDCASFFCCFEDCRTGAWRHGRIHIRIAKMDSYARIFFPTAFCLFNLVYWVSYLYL

NCCCC(=O)O [GABA]
whole-cell patch-clamp peak current at 3 mM GABA, after SAHA treatment: 14 ± 3 pA
